Patent publication US11414689B2, “Hydrolysis of steviol glycosides by beta-glucosidase” (Conagen Inc., priority 2017, dated 2022)

Columns and labels:
[1] = tested on: Beta-glucosidase (B-glu1, SEQ: 1); assay: de-glycosylation (hydrolysis) of steviol glycosides by purified recombinant B-glu1, HPLC analysis; type: biochemical, Pichia pastoris; conditions: recombinant B-glu1 10 μg in 300 μl, 1 mg/ml steviol glycoside, 50 mM potassium phosphate pH 7.2, 30-37° C.
Excerpt: According to the current disclosure Pichia pastoris genome analysis was completed and several beta-glycosidase candidate genes were identified. Full length DNA fragments of all candidate beta-glucosidase genes were commercially synthesized. Almost all codons of the cDNA were changed to those preferred for E. coli (Genscript, NJ). The synthesized DNA was cloned into a bacterial expression vector pETite N-His SUMO Kan Vector (Lucigen). These same experiments could be performed in Yarrowia lipolytica with sequences optimized for such use.
Each expression construct was transformed into E. coli BL21 (DE3), which was subsequently grown in LB media containing 50 μg/mL kanamycin at 37° C. until reaching an OD600 of 0.8-1.0. Protein expression was induced by addition of 1 mM isopropyl β-D-1-thiogalactopyranoside (IPTG) and the culture was further grown at 16° C. for 22 hr. Cells were harvested by centrifugation (3,000×g; 10 min; 4° C.). The cell pellets were collected and were either used immediately or stored at −80° C.
The cell pellets typically were re-suspended in lysis buffer (50 mM potassium phosphate buffer, pH 7.2, 25 ug/ml lysozyme, 5 ug/ml DNase I, 20 mM imidazole, 500 mM NaCl, 10% glycerol, and 0.4% Triton X-100). The cells were disrupted by sonication under 4° C., and the cell debris was clarified by centrifugation (18,000×g; 30 min). Supernatant was loaded to an equilibrated (equilibration buffer: 50 mM potassium phosphate buffer, pH 7.2, 20 mM imidazole, 500 mM NaCl, 10% glycerol) Ni-NTA (Qiagen) affinity column. After loading of protein sample, the column was washed with equilibration buffer to remove unbound contaminant proteins. The His-tagged beta-glucosidase recombinant polypeptides were eluted by equilibration buffer containing 250 mM imidazole.
The purified candidate beta-glucosidase recombinant polypeptides were assayed for de-glycosylation activity by using various steviol glycosides as substrate. Typically, the recombinant polypeptide (10 μg) was tested in a 300 μl in vitro reaction system. The reaction system contains 50 mM potassium phosphate buffer, pH 7.2, 1 mg/ml steviol glycoside. The reaction was performed at 30-37° C. and 50 ul reaction was terminated by adding 200 μL 1-butanol at various time points. The samples were extracted three times with 200 μL 1-butanol. The pooled fraction was dried and dissolved in 100 μL 80% methanol for high-performance liquid chromatography (HPLC) analysis.
HPLC analysis was then performed using a Dionex UPLC ultimate 3000 system (Sunnyvale, Calif.), including a quaternary pump, a temperature controlled column compartment, an auto sampler and a UV absorbance detector. A Synergi Hydro-RP column (Phenomenex) with guard column was used for the characterization of steviol glycosides in the pooled samples. Acetonitrile in water was used mobile phase in the HPLC analysis. The detection wavelength used in the HPLC analysis was 210 nm.

[2] = relative to table sugar; cited from earlier work
[3] = tested on: disrupted Pichia cells (released B-glu1 enzyme); assay: hydrolysis of steviol glycosides by disrupted Pichia cells (crude extract), HPLC analysis; type: biochemical, Pichia pastoris; conditions: crude protein 50 ug in 300 ul, 1 g/L substrate, pH 7.2, 30-37° C.; FIG. 8 samples at 24 hours
Procedure: Pichia cells were suspended in extraction buffer (50 mM potassium phosphate buffer, pH 7.2; 150 mM NaCl). After sonication, the supernatant (crude extract) was collected by centrifuge set at 12,000 g at 4° C. The resulting crude protein (50 ug) was tested in a 300 ul in vitro reaction system. The reaction system contains 50 mM potassium phosphate buffer, pH 7.2, 1 mg/ml steviol glycoside. The reaction was performed at 30-37° C. and 50 ul reaction was terminated by adding 200 μL 1-butanol at various time points. The samples were extracted three times with 200 μL 1-butanol. The pooled fraction was dried and dissolved in 100 μL 80% methanol for high-performance liquid chromatography (HPLC) analysis. HPLC analysis was then performed using a Dionex UPLC ultimate 3000 system (Sunnyvale, Calif.), including a quaternary pump, a temperature controlled column compartment, an auto sampler and a UV absorbance detector. A Synergi Hydro-RP column (Phenomenex) with guard column was used for the characterization of steviol glycosides in the pooled samples. Acetonitrile in water was used mobile phase in the HPLC analysis. The detection wavelength used in the HPLC analysis was 210 nm.

## C=C1C[C@@]23CC[C@H]4[C@@](C)(CCC[C@@]4(C)C(=O)O[C@@H]4O[C@H](CO)[C@@H](O)[C@H](O)[C@H]4O)[C@@H]2CC[C@]1(O[C@@H]1O[C@H](CO)[C@@H](O)[C@H](O)[C@H]1O[C@@H]1O[C@H](CO)[C@@H](O)[C@H](O)[C@H]1O)C3 [Stevioside, stevioside]
[1]
  Products of hydrolysis of steviol glycoside substrate by B-glu1: Steviolbioside (SB)
[2]
  sweetness relative to sucrose: 100-150 times sweeter than sucrose
[3]
  Products of hydrolysis by disrupted Pichia cells: steviolbioside
